Data taken from ChEMBL document CHEMBL5038612, “Discovery of a 2,4-diphenyl-5,6-dihydrobenzo(h)quinolin-8-amine derivative as a novel DNA intercalating topoisomerase IIα poison” (Eur J Med Chem, 2021).
pIC50: −log10 of the molar value. Structures can show the parent of a compound that is named as a salt. Activity calls are given as the source filed them. The rule behind the calls is not given here.

Legend:
[1] = tested on: HeLa; assay: Antiproliferative activity against human HeLa cells assessed as reduction in cell viability after 48 hrs by Ez-cytoX based microplate reader method; assay type: functional
[2] = tested on: HCT-15; assay: Antiproliferative activity against human HCT-15 cells assessed as reduction in cell viability after 48 hrs by Ez-cytoX based microplate reader method; assay type: functional; settings: HCT-15, 48 h
[3] = biological target: T1, DNA topoisomerase 2-alpha (Homo sapiens, UniProt P11388); assay: Inhibition of human topoisomerase 2 alpha mediated supercoiled pBR322 DNA relaxation at 100 uM by ethidium bromide staining based agarose gel electrophoresis relative to control
T1 sequence (P11388 whole entry): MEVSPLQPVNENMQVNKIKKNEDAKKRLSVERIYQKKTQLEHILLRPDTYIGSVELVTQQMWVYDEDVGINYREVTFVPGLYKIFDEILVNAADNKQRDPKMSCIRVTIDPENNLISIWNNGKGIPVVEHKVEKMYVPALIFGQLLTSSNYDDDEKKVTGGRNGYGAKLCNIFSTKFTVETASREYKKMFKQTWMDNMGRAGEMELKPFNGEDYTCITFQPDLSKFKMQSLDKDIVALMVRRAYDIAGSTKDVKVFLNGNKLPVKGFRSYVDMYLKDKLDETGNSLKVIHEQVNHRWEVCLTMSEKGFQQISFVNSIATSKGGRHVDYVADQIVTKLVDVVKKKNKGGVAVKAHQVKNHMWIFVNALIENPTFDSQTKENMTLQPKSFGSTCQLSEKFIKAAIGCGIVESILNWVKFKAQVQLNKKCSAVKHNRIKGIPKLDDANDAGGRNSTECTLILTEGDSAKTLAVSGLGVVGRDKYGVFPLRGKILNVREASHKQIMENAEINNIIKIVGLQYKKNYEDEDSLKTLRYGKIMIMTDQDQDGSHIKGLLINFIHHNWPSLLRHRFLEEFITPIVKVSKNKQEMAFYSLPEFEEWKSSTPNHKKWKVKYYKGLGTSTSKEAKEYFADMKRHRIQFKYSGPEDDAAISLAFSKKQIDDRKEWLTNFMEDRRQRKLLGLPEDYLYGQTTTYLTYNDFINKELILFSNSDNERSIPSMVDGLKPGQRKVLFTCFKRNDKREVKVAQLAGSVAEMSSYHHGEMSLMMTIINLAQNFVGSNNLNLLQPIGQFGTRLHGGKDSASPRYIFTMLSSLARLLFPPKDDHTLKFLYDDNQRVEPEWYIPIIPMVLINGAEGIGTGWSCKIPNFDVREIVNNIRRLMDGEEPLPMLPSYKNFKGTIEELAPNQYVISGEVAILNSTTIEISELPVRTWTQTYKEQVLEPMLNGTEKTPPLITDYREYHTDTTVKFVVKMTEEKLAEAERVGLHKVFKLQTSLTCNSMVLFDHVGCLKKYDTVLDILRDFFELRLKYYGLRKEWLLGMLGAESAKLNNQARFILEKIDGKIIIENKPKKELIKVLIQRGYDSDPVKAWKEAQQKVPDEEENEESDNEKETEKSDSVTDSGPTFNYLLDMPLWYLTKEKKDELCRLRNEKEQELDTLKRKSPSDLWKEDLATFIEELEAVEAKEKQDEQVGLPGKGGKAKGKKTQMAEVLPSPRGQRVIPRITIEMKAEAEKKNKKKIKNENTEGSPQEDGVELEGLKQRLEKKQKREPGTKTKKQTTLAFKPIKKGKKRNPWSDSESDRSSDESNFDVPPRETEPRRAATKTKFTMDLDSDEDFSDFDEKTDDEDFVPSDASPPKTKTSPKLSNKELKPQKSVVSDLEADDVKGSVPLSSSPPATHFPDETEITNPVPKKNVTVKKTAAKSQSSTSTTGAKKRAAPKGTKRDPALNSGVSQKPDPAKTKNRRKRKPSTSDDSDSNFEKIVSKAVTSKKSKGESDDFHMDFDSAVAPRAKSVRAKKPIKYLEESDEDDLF

[4] = biological target: T1, DNA topoisomerase 2-alpha; assay: Inhibition of human topoisomerase 2 alpha mediated supercoiled pBR322 DNA relaxation at 1 uM by ethidium bromide staining based agarose gel electrophoresis relative to control
[5] = biological target: DNA topoisomerase 2-beta (Homo sapiens) (UniProt Q02880); assay: Inhibition of human topoisomerase 2 beta mediated supercoiled pBR322 DNA relaxation at 5 uM by ethidium bromide staining based agarose gel electrophoresis relative to control
Chain of DNA topoisomerase 2-beta (Homo sapiens) (Q02880 whole entry): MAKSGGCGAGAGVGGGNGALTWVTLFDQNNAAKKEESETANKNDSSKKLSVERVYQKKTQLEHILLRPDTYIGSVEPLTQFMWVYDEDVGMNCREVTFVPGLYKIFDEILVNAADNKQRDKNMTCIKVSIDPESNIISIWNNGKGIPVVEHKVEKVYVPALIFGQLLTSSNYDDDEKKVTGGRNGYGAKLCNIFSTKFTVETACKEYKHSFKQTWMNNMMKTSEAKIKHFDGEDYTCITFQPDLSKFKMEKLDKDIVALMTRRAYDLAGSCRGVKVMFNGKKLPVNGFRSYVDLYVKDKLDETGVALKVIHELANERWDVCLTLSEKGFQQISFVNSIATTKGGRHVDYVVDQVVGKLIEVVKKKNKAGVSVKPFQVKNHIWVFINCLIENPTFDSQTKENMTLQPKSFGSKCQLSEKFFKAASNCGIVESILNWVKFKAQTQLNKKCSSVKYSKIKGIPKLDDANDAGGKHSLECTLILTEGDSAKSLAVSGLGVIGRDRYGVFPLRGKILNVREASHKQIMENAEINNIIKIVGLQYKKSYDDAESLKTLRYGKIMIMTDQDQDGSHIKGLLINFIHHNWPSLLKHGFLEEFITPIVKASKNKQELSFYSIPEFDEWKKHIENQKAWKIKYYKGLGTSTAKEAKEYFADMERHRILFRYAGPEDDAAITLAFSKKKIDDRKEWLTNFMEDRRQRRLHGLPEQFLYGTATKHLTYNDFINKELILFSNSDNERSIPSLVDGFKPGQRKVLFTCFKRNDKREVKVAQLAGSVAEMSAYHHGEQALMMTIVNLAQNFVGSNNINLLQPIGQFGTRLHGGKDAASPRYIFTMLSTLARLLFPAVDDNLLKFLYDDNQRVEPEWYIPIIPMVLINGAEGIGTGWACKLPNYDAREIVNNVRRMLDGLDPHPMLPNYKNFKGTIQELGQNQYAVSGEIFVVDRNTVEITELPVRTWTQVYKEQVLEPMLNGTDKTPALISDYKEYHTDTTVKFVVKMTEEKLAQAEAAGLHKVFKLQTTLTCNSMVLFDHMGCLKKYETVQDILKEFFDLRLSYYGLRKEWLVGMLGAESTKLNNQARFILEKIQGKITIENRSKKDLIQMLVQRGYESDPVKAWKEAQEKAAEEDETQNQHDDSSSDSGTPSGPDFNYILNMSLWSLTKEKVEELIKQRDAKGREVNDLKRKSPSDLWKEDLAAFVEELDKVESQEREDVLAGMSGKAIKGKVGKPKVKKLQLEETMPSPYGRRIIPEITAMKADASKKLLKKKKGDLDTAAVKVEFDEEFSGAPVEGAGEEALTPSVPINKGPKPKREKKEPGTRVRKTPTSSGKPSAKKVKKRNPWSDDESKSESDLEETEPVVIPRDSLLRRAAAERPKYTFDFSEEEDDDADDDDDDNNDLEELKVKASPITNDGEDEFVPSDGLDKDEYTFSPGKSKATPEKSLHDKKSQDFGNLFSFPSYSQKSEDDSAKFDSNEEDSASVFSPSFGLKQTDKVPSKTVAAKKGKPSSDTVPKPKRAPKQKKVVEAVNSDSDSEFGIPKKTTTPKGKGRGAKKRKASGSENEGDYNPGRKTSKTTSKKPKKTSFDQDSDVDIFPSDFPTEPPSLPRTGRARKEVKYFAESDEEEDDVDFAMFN

[6] = tested on: SK-OV-3; assay: Antiproliferative activity against human SK-OV-3 cells assessed as reduction in cell viability after 48 hrs by Ez-cytoX based microplate reader method; assay type: functional; settings: SK-OV-3, 48 h
[7] = tested on: Calf thymus DNA; assay: Binding affinity to calf thymus DNA assessed as DNA intercalation at 10 to 100 uM by fluorescence based EtBr-displacement assay; assay type: nucleic-acid assay; settings: Bos taurus; dose 10-100 µM
[8] = tested on: Calf thymus DNA; assay: Binding affinity to calf thymus DNA assessed as DNA intercalation at 100 uM by fluorescence based EtBr-displacement assay relative to control; assay type: nucleic-acid assay; settings: Bos taurus
[9] = biological target: T1, DNA topoisomerase 2-alpha; assay: Inhibition of human topoisomerase 2 alpha mediated supercoiled pBR322 DNA relaxation at 2 uM by ethidium bromide staining based agarose gel electrophoresis relative to control
[10] = biological target: DNA topoisomerase 2-beta (Homo sapiens) (UniProt Q02880); assay: Inhibition of human topoisomerase 2 beta mediated supercoiled pBR322 DNA relaxation at 2 uM by ethidium bromide staining based agarose gel electrophoresis relative to control
[11] = tested on: LNCaP; assay: Antiproliferative activity against human LNCaP-LN3 cells assessed as reduction in cell viability after 48 hrs by Ez-cytoX based microplate reader method; assay type: functional
[12] = biological target: DNA topoisomerase 2-beta (Homo sapiens) (UniProt Q02880); assay: Inhibition of human topoisomerase 2 beta mediated supercoiled pBR322 DNA relaxation at 100 uM by ethidium bromide staining based agarose gel electrophoresis relative to control
[13] = biological target: T1, DNA topoisomerase 2-alpha; assay: Inhibition of human topoisomerase 2 alpha mediated supercoiled pBR322 DNA relaxation at 10 uM by ethidium bromide staining based agarose gel electrophoresis relative to control
[14] = biological target: T1, DNA topoisomerase 2-alpha; assay: Inhibition of human topoisomerase 2 alpha mediated supercoiled pBR322 DNA relaxation by ethidium bromide staining based agarose gel electrophoresis
[15] = tested on: DU-145; assay: Antiproliferative activity against human DU-145 cells assessed as reduction in cell viability after 48 hrs by Ez-cytoX based microplate reader method; assay type: functional; settings: DU-145, 48 h
[16] = tested on: BT-474; assay: Antiproliferative activity against human BT-474 cells assessed as reduction in cell viability after 48 hrs by Ez-cytoX based microplate reader method; assay type: functional; settings: BT-474, 48 h
[17] = tested on: LNCaP-Clone-FGC; assay: Antiproliferative activity against human LNCaP-Clone-FGC cells assessed as reduction in cell viability after 48 hrs by Ez-cytoX based microplate reader method; assay type: functional
[18] = biological target: T1, DNA topoisomerase 2-alpha; assay: Inhibition of human topoisomerase 2 alpha mediated supercoiled pBR322 DNA relaxation at 5 uM by ethidium bromide staining based agarose gel electrophoresis relative to control

Row | SMILES | inhibition [3] | pIC50 [1] | pIC50 [2] | further results
1 | Nc1ccc2c(c1)CCc1c(-c3ccc(OC(F)(F)F)cc3)cc(-c3ccc(O)cc3)nc1-2 | 36.5% | 5.23 | 5.69 | 
2 | Nc1ccc2c(c1)CCc1c(-c3ccccc3F)cc(-c3cccc(O)c3)nc1-2 | 4.3% | 5.27 | 5.72 | 
3 | Nc1ccc2c(c1)CCc1c(-c3ccc(F)cc3)cc(-c3ccc(O)cc3)nc1-2 | 77.6% | 5.25 | 5.53 | 
4 | Nc1ccc2c(c1)CCc1c(-c3cccc(C(F)(F)F)c3)cc(-c3ccccc3O)nc1-2 | 25.7% | 5.12 | 5.64 | 
5 | Nc1ccc2c(c1)CCc1c(-c3ccccc3)cc(-c3ccc(O)cc3)nc1-2 | 21.7% | 5.18 | 5.42 | 
6 | Nc1ccc2c(c1)CCc1c(-c3cccc(OC(F)(F)F)c3)cc(-c3ccc(O)cc3)nc1-2 | 36.5% | 5.42 | 5.75 | 
7 | Nc1ccc2c(c1)CCc1c(-c3cccc(F)c3)cc(-c3ccc(O)cc3)nc1-2 | 10.5% | 5.30 | 5.73 | 
8 | Nc1ccc2c(c1)CCc1c(-c3ccccc3)cc(-c3ccccc3O)nc1-2 | 0% | 4.48 | 5.46 | 
9 | Nc1ccc2c(c1)CCc1c(-c3ccccc3C(F)(F)F)cc(-c3ccc(O)cc3)nc1-2 | 81.9% | 5.29 | 5.70 | inhibition [4]: 22.3%; inhibition [5]: 21.7%; pIC50 [6]: 5.78; Activity [7]: Dose-Dependent Effect; Activity [8]: inactive; inhibition [9]: 34.4%; inhibition [10]: 19.6%; pIC50 [11]: 5.25; inhibition [12]: 82.6%; inhibition [13]: 66.2%; pIC50 [14]: 5.45; pIC50 [15]: 5.81; pIC50 [16]: 5.29; pIC50 [17]: 5.14; inhibition [18]: 57%
10 | Nc1ccc2c(c1)CCc1c(-c3ccccc3OC(F)(F)F)cc(-c3ccc(O)cc3)nc1-2 | 72.5% | 5.54 | 5.53 | 
11 | Nc1ccc2c(c1)CCc1c(-c3ccccc3F)cc(-c3ccccc3O)nc1-2 | 1.2% | 4.64 | 5.95 | 
12 | Nc1ccc2c(c1)CCc1c(-c3ccccc3OC(F)(F)F)cc(-c3cccc(O)c3)nc1-2 | 62.8% | 5.47 | 5.25 | 
13 | Nc1ccc2c(c1)CCc1c(-c3ccc(F)cc3)cc(-c3cccc(O)c3)nc1-2 | 3.9% | 5.29 | 5.54 | 
14 | Nc1ccc2c(c1)CCc1c(-c3ccc(F)cc3)cc(-c3ccccc3O)nc1-2 | 1.2% | < 4.30 | < 4.30 | 
15 | Nc1ccc2c(c1)CCc1c(-c3cccc(C(F)(F)F)c3)cc(-c3ccc(O)cc3)nc1-2 | 75% | 5.29 | 5.70 | 
16 | Nc1ccc2c(c1)CCc1c(-c3cccc(C(F)(F)F)c3)cc(-c3cccc(O)c3)nc1-2 | 62.9% | 5.35 | 5.61 | 
17 | COc1cccc2c1C(=O)c1c(O)c3c(c(O)c1C2=O)C[C@@](O)(C(=O)CO)C[C@@H]3O[C@H]1C[C@H](N)[C@H](O)[C@H](C)O1 [DOXORUBICIN HYDROCHLORIDE] |  |  | 5.72 | 
18 | COc1cc([C@@H]2c3cc4c(cc3[C@@H](O[C@@H]3O[C@@H]5CO[C@@H](C)O[C@H]5[C@H](O)[C@H]3O)[C@H]3COC(=O)[C@H]23)OCO4)cc(OC)c1O [ETOPOSIDE] |  | 5.08 |  | 

Now from value to compound, other results behind:

Row | inhibition [3] | SMILES | pIC50 [1] | pIC50 [2] | further results
19 | 72.4% | Nc1ccc2c(c1)CCc1c(-c3ccc(C(F)(F)F)cc3)cc(-c3cccc(O)c3)nc1-2 | 5.30 | 5.63 | 
20 | 87.4% | Nc1ccc2c(c1)CCc1c(-c3ccccc3C(F)(F)F)cc(-c3cccc(O)c3)nc1-2 | 5.27 | 5.53 | 
21 | 70% | Nc1ccc2c(c1)CCc1c(-c3ccccc3OC(F)(F)F)cc(-c3ccccc3O)nc1-2 | 5.26 | 5.54 | 
22 | 60% | Nc1ccc2c(c1)CCc1c(-c3cccc(OC(F)(F)F)c3)cc(-c3cccc(O)c3)nc1-2 | 5.34 | 5.74 | 
23 | 28.8% | Nc1ccc2c(c1)CCc1c(-c3ccc(C(F)(F)F)cc3)cc(-c3ccccc3O)nc1-2 | < 4.30 | < 4.30 | 
24 | 25.3% | Nc1ccc2c(c1)CCc1c(-c3ccccc3F)cc(-c3ccc(O)cc3)nc1-2 | 5.49 | 5.82 | 
25 | 3.4% | Nc1ccc2c(c1)CCc1c(-c3cccc(F)c3)cc(-c3cccc(O)c3)nc1-2 | 5.38 | 5.41 | 
26 | 29.3% | Nc1ccc2c(c1)CCc1c(-c3ccccc3C(F)(F)F)cc(-c3ccccc3O)nc1-2 | 5.18 | 5.91 | 
27 | 30.2% | Nc1ccc2c(c1)CCc1c(-c3ccc(OC(F)(F)F)cc3)cc(-c3ccccc3O)nc1-2 | < 4.30 | < 4.30 | 
28 | 1.3% | Nc1ccc2c(c1)CCc1c(-c3cccc(F)c3)cc(-c3ccccc3O)nc1-2 | 5.09 | 5.65 | 
29 | 49% | Nc1ccc2c(c1)CCc1c(-c3ccc(OC(F)(F)F)cc3)cc(-c3cccc(O)c3)nc1-2 | 5.25 | 5.57 | 
30 | 1.5% | Nc1ccc2c(c1)CCc1c(-c3ccccc3)cc(-c3cccc(O)c3)nc1-2 | 5.39 | 5.48 | 
31 | 77.8% | Nc1ccc2c(c1)CCc1c(-c3ccc(C(F)(F)F)cc3)cc(-c3ccc(O)cc3)nc1-2 | 5.26 | 5.56 | 
